Test system: MT-2 cells
Experiment: Cytotoxicity (CC50), MTT assay
Format: cell-based
Settings: human, 7 days
Description: The susceptibility of HIV-1LAI to various drugs was determined as previously described with minor modifications. Briefly, MT-2 cells (10^4/ml) were exposed to 100 50% tissue culture infectious doses (TCID50) of HIV-1LAI in the presence or absence of various concentrations of drugs in 96-well microculture plates and were incubated at 37° C. for 7 days. After 100 μl of the medium was removed from each well, 3-(4,5-dimetylthiazol-2-yl)-2,5-diphenyltetrazolium bromide (MTT) solution (10 μl, 7.5 mg/ml in phosphate-buffered saline) was added to each well in the plate, followed by incubation at 37° C. for 2 h. […] All assays were performed in duplicate or triplicate. […] In determining the drug susceptibility of certain laboratory HIV-1 strains, MT-4 cells were employed as target cells as previously described with minor modifications. In brief, MT-4 cells (10^5/ml) were exposed to 100 TCID50 of drug-resistant HIV-1 strains in the presence or absence of various concentrations of drugs and were incubated at 37° C. On day 7 of culture, the supernatants were harvested and the amounts of p24 Gag protein were determined by using a fully automated chemiluminescent enzyme immunoassay system (Lumipulse F: Fujirebio Inc., Tokyo). […] All assays were performed in duplicate or triplicate. PHA-PBMs were derived from a single donor in each independent experiment. Thus, for obtaining the data, three different donors were recruited.

How did the CC50 turn out when `CC(C)CN(C[C@@H](O)[C@H](Cc1ccccc1)NC(=O)O[C@H]1CO[C@H]2OCC(F)(F)[C@H]21)S(=O)(=O)c1ccc(N)cc1` [GRL-05010] was run?
Its CC50 is 37 µM.

— patent publication US9346820B2, “HIV-1 protease inhibitors having gem-di-fluoro bicyclic P2-ligands” (priority 2013, dated 2016)
